From PubChem BioAssay (NCI)
Several values for one entry are separate records, joined by “and”; a condition that tells them apart may be missing. Identical values can stand only once.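 48-hour exposure; five concentrations; linearly interpolated endpoints. At the GI50, growth is halved. The concentration for full growth arrest is given as TGI.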

Experiments:
Assay in all cases: NCI anticancer screen, dose series, 48 h
[1] = test system: A549 NSCLC
[2] = test system: IGROV1 ovarian
[3] = test system: OVCAR-3 ovarian
[4] = test system: RXF 393 renal
[5] = test system: SF-268 CNS
[6] = test system: SF-539 CNS
[7] = test system: SN12C renal
[8] = test system: SNB-19 CNS
[9] = test system: LXFL 529 NSCLC
[10] = test system: M19-MEL melanoma

Compound: Cc1ccc(NC(C(=O)c2ccccc2)c2ccccc2)cc1 (stereo not given)
- GI50 [1]: 4.08 µM
- TGI [1]: > 100 µM
- GI50 [2]: 2.11 µM
- TGI [2]: 22.6 µM
- GI50 [3]: 3.31 µM
- TGI [3]: 59.9 µM
- GI50 [4]: 17.6 µM
- TGI [4]: 46.3 µM
- GI50 [5]: 3.1 µM
- TGI [5]: 14.2 µM
- GI50 [6]: 13 µM
- TGI [6]: > 100 µM
- GI50 [7]: 3.55 µM
- TGI [7]: > 100 µM
- GI50 [8]: 4.26 µM
- TGI [8]: > 100 µM

Compound: NC(Cc1ccc(O)cc1)C(=O)N/N=C/c1ccc(N(CCCl)CCCl)cc1 (stereo not given)
- GI50 [1]: 6.39 µM
- TGI [1]: > 100 µM
- GI50 [2]: 11.5 µM
- TGI [2]: > 100 µM
- GI50 [3]: 14.2 µM
- TGI [3]: 62 µM
- GI50 [4]: 20.6 µM
- TGI [4]: > 100 µM
- GI50 [5]: 2.81 µM
- TGI [5]: 87.8 µM
- GI50 [6]: 4.26 µM
- TGI [6]: 68.3 µM
- GI50 [7]: 1.42 µM
- TGI [7]: > 100 µM
- GI50 [8]: 29.9 µM
- TGI [8]: > 100 µM

Compound: CC1(C)C(=O)CCC(=O)C(C)(C)C2=CC=C(O2)C(C)(C)C(=O)CCC(=O)C(C)(C)C2=CC=C1O2
- TGI [1]: > 100 µM
- TGI [2]: > 100 µM
- TGI [9]: > 100 µM
- TGI [10]: > 100 µM
- TGI [3]: > 100 µM
- TGI [4]: > 100 µM
- TGI [5]: > 100 µM
- TGI [8]: > 100 µM

Compound: CS(=O)/C(C#N)=C\C=C\c1cccc(Cl)c1 (stereo not given)
- GI50 [1]: 2.99 µM
- TGI [1]: 16.8 µM
- GI50 [2]: 2.08 µM
- TGI [2]: 10.3 µM
- GI50 [3]: 2.45 µM
- TGI [3]: 10.1 µM
- GI50 [4]: 2 µM
- TGI [4]: 3.9 µM
- GI50 [5]: 2.46 µM
- TGI [5]: 14.5 µM
- GI50 [6]: 1.79 µM
- TGI [6]: 7.5 µM
- GI50 [7]: 2.74 µM
- TGI [7]: 12.2 µM
- GI50 [8]: 1.81 µM
- TGI [8]: 5.54 µM

Compound: COc1cccc(C(C#N)NC23CC4CC(CC(C4)C2)C3)c1 (stereo not given)
- TGI [1]: > 100 µM
- TGI [2]: > 100 µM
- TGI [3]: > 100 µM
- TGI [4]: > 100 µM
- TGI [5]: > 100 µM
- TGI [6]: > 100 µM
- TGI [7]: > 100 µM
- TGI [8]: > 100 µM

Compound: Nc1ncnc2c1nc(N)n2C1OC(CO)C(O)C1O (stereo not given)
- GI50 [1]: 0.331 µM
- TGI [1]: 2.02 µM
- GI50 [2]: 0.238 µM
- TGI [2]: 0.863 µM
- GI50 [3]: 0.892 µM
- TGI [3]: 4.75 µM
- GI50 [4]: 1.45 µM
- TGI [4]: 3.36 µM
- GI50 [5]: 0.93 µM
- TGI [5]: 2.81 µM
- GI50 [6]: 1.88 µM
- TGI [6]: 3.98 µM
- GI50 [7]: 0.418 µM
- TGI [7]: 3.21 µM
- GI50 [8]: 1.34 µM
- TGI [8]: 6.28 µM

Compound: O=[N+]([O-])c1ccc(N/N=C/c2ccccc2O)nc1
- GI50 [1]: 2.07 µM
- TGI [1]: > 100 µM
- GI50 [2]: 2.7 µM
- TGI [2]: > 100 µM
- GI50 [3]: 0.368 µM
- TGI [3]: > 100 µM
- GI50 [4]: 3.48 µM
- TGI [4]: > 100 µM
- GI50 [5]: 1.26 µM
- TGI [5]: > 100 µM
- GI50 [6]: 2.68 µM
- TGI [6]: > 100 µM
- GI50 [7]: 2.17 µM
- TGI [7]: > 100 µM
- GI50 [8]: 3.88 µM
- TGI [8]: > 100 µM

Compound: CCCCCCCCCCCCNC(=O)[C@H]1CSC(c2cc(Br)cs2)N1 (stereo not given in full)
- GI50 [1]: 6.99 µM
- TGI [1]: 14.1 µM
- GI50 [2]: 1 µM
- TGI [2]: 2.19 µM
- GI50 [3]: 1.15 µM
- TGI [3]: 2.38 µM
- GI50 [4]: 1.18 µM
- TGI [4]: 2.6 µM
- GI50 [5]: 0.598 µM
- TGI [5]: 1.42 µM
- GI50 [6]: 0.95 µM
- TGI [6]: 1.87 µM
- GI50 [7]: 1.11 µM
- TGI [7]: 2.56 µM
- GI50 [8]: 2.48 µM
- TGI [8]: 8.49 µM

Compound: O=C1/C(=C\c2ccc([N+](=O)[O-])cc2)CS(=O)(=O)C/C1=C/c1ccc([N+](=O)[O-])cc1
- GI50 [1]: 0.35 µM
- TGI [1]: 10.8 µM
- GI50 [2]: 0.275 µM
- TGI [2]: 0.841 µM and 2.22 µM
- GI50 [3]: 0.0761 µM
- TGI [3]: 0.329 µM and 0.754 µM
- TGI [4]: 1.45 µM
- GI50 [5]: 0.359 µM
- TGI [5]: 10.5 µM
- GI50 [6]: 0.136 µM
- TGI [6]: 0.579 µM and 0.363 µM
- GI50 [7]: 0.344 µM and 0.366 µM
- TGI [7]: 1.56 µM
- TGI [8]: 22.2 µM

Compound: C/C(=C\CCc1ccsc1)CC/C=C(\C)CCCN1CCN(CCO)CC1
- GI50 [1]: 3.05 µM
- TGI [1]: 13.3 µM
- GI50 [2]: 4.68 µM
- TGI [2]: 18.9 µM
- GI50 [3]: 3.16 µM
- TGI [3]: 11.2 µM
- GI50 [4]: 1.82 µM
- TGI [4]: 5.42 µM
- GI50 [5]: 5.44 µM
- TGI [5]: 19.8 µM
- GI50 [6]: 3.41 µM
- TGI [6]: 13.9 µM
- GI50 [7]: 4.13 µM
- TGI [7]: 19.2 µM
- GI50 [8]: 4.4 µM
- TGI [8]: 21 µM

Compound: COc1cc(-c2ccc(Nc3ccccc3C(=O)O)c(OC)c2)ccc1Nc1ccccc1C(=O)O
- TGI [1]: > 100 µM
- TGI [2]: > 100 µM
- TGI [9]: > 100 µM
- TGI [3]: 39.1 µM
- TGI [4]: 83.3 µM
- TGI [5]: > 100 µM
- TGI [6]: 45 µM
- TGI [7]: > 73.6 µM
- TGI [8]: > 100 µM

Compound: COc1ccccc1N(C(C)=O)C1=C(Cl)C(=O)c2ccccc2C1=O
- GI50 [1]: 3.43 µM
- TGI [1]: 13.5 µM
- GI50 [2]: 2.82 µM
- TGI [2]: 10.3 µM
- GI50 [3]: 1.15 µM
- TGI [3]: 2.72 µM
- GI50 [4]: 1.12 µM
- TGI [4]: 2.45 µM
- GI50 [5]: 3.19 µM
- TGI [5]: 12.5 µM
- GI50 [6]: 1.45 µM
- TGI [6]: 4.77 µM
- GI50 [7]: 2.83 µM
- TGI [7]: 12.1 µM
- GI50 [8]: 3.16 µM
- TGI [8]: > 40.8 µM

Compound: NC(=O)c1ccccc1NC(=O)C(=O)Nc1n[nH]c(N)n1
- TGI [1]: > 100 µM
- TGI [2]: > 100 µM
- TGI [9]: > 100 µM
- TGI [10]: > 100 µM
- TGI [3]: > 100 µM
- TGI [4]: > 100 µM
- TGI [6]: > 100 µM
- TGI [7]: > 100 µM
- TGI [8]: > 100 µM

Compound: O=C(NCCSSCCNC(=O)/C(Cc1ccc(O)c(Br)c1)=N/O)/C(Cc1ccc(O)c(Br)c1)=N/O
- TGI [1]: 15.5 µM
- TGI [2]: 7.15 µM
- TGI [3]: 6.06 µM
- TGI [4]: 2 µM
- TGI [5]: 9.75 µM
- TGI [6]: 8.84 µM
- TGI [7]: 5.73 µM
- TGI [8]: 7.96 µM

Compound: Cc1ccc(-n2nnc3c(sc4ccccc43)c2=O)cc1
- GI50 [1]: 5.23 µM
- TGI [1]: > 100 µM
- GI50 [2]: 4.16 µM
- TGI [2]: > 100 µM
- GI50 [3]: 17 µM
- TGI [3]: > 100 µM
- GI50 [4]: 16.8 µM
- TGI [4]: > 100 µM
- GI50 [5]: 4.62 µM
- TGI [5]: 71 µM
- GI50 [6]: 5.23 µM
- TGI [6]: 30.6 µM
- GI50 [7]: > 100 µM
- TGI [7]: > 100 µM
- GI50 [8]: 6.22 µM
- TGI [8]: > 100 µM

Compound: CC[C@@]1(O)C(=O)OCc2c1cc1n(c2=O)Cc2cc3c(Cl)c4c(cc3nc2-1)OCO4
- GI50 [1]: < 0.001 µM
- TGI [1]: 1.68 µM and 3.7 µM
- GI50 [2]: 0.121 µM and 0.285 µM
- TGI [2]: > 100 µM
- GI50 [3]: 0.653 µM and 1.77 µM
- TGI [3]: > 100 µM
- GI50 [4]: 0.0371 µM and 0.014 µM
- TGI [4]: 2.22 µM and 0.23 µM
- GI50 [5]: 0.0216 µM
- TGI [5]: 13.2 µM
- GI50 [6]: < 0.001 µM
- TGI [6]: 0.0924 µM
- GI50 [7]: < 0.001 µM
- GI50 [8]: 0.00125 µM
- TGI [8]: 0.26 µM
